Results published in paper PMC12028158, “Synthesis and In Vitro Evaluation of the Anticancer Effect of Novel Phosphonium Vindoline Derivatives” (International Journal of Molecular Sciences, 2025).

Assays:
Type in all cases: cell-based
OVCAR-4 [1] = experiment: NCI60 five-dose screen; conditions: Homo sapiens, OVCAR-4
ACHN = experiment: NCI60 five-dose screen; conditions: Homo sapiens
NCI-H522 [2] = experiment: NCI60 five-dose screen; conditions: Homo sapiens, NCI-H522
HL-60(TB) = experiment: NCI60 five-dose screen; conditions: Homo sapiens, HL-60
HOP-92 [3] = experiment: NCI60 one-dose screen; conditions: Homo sapiens, HOP-92, read-out: Growth percent
MDA-MB-231/ATCC = experiment: NCI60 one-dose screen; conditions: Homo sapiens, MDA-MB-231, read-out: Growth percent
[4] = system: 60 human tumor cell lines (NCI60); experiment: NCI60 one-dose screen, overall mean; conditions: Homo sapiens, 60 cell, read-out: Mean growth percent
SK-MEL-2 = experiment: NCI60 one-dose screen; conditions: Homo sapiens, SK-MEL-2, read-out: Growth percent
MOLT-4 = experiment: NCI60 five-dose screen; conditions: Homo sapiens, MOLT-4
RPMI-8226 = experiment: NCI60 one-dose screen; conditions: Homo sapiens, RPMI-8226, read-out: Growth percent
UACC-257 = experiment: NCI60 five-dose screen; conditions: Homo sapiens, UACC-257
HOP-92 [5] = experiment: NCI60 five-dose screen; conditions: Homo sapiens, HOP-92
A549/ATCC = experiment: NCI60 five-dose screen; conditions: Homo sapiens, A549
SK-OV-3 [6] = experiment: NCI60 one-dose screen; conditions: Homo sapiens, SK-OV-3, read-out: Growth percent
NCI-H460 = experiment: NCI60 five-dose screen; conditions: Homo sapiens, NCI-H460
OVCAR-5 [7] = experiment: NCI60 one-dose screen; conditions: Homo sapiens, OVCAR-5, read-out: Growth percent
Melanoma panel = experiment: NCI60 five-dose screen, panel mean; conditions: Homo sapiens, read-out: Mean GI50
U251 = experiment: NCI60 five-dose screen; conditions: Homo sapiens, U-251
TK-10 = experiment: NCI60 one-dose screen; conditions: Homo sapiens, TK-10, read-out: Growth percent
HCT-15 = experiment: NCI60 one-dose screen; conditions: Homo sapiens, HCT-15, read-out: Growth percent
NCI-H522 [8] = experiment: NCI60 one-dose screen; conditions: Homo sapiens, NCI-H522, read-out: Growth percent
MALME-3M = experiment: NCI60 one-dose screen; conditions: Homo sapiens, Malme-3M, read-out: Growth percent
RXF 393 = experiment: NCI60 five-dose screen; conditions: Homo sapiens, RXF 393
LOX IMVI = experiment: NCI60 one-dose screen; conditions: Homo sapiens, read-out: Growth percent
NCI-H226 = experiment: NCI60 one-dose screen; conditions: Homo sapiens, NCI-H226, read-out: Growth percent
HCC-2998 = experiment: NCI60 five-dose screen; conditions: Homo sapiens, HCC 2998
T-47D = experiment: NCI60 one-dose screen; conditions: Homo sapiens, T47D, read-out: Growth percent
M14 = experiment: NCI60 five-dose screen; conditions: Homo sapiens, M14
A498 = experiment: NCI60 five-dose screen; conditions: Homo sapiens, A498
786-0 = experiment: NCI60 one-dose screen; conditions: Homo sapiens, 786-0, read-out: Growth percent
OVCAR-4 [9] = experiment: NCI60 one-dose screen; conditions: Homo sapiens, OVCAR-4, read-out: Growth percent
[10] = system: Non-small Cell Lung Cancer panel; experiment: NCI60 five-dose screen, panel mean; conditions: Homo sapiens, read-out: Mean GI50
CAKI-1 = experiment: NCI60 five-dose screen; conditions: Homo sapiens, CAKI-1
SW-620 = experiment: NCI60 one-dose screen; conditions: Homo sapiens, SW-620, read-out: Growth percent
SK-OV-3 [11] = experiment: NCI60 five-dose screen; conditions: Homo sapiens, SK-OV-3
Renal Cancer panel = experiment: NCI60 five-dose screen, panel mean; conditions: Homo sapiens, read-out: Mean GI50
NCI-H23 = experiment: NCI60 one-dose screen; conditions: Homo sapiens, NCI-H23, read-out: Growth percent
HT29 = experiment: NCI60 one-dose screen; conditions: Homo sapiens, HT-29, read-out: Growth percent
OVCAR-5 [12] = experiment: NCI60 five-dose screen; conditions: Homo sapiens, OVCAR-5
KM12 = experiment: NCI60 five-dose screen; conditions: Homo sapiens, KM12
MDA-MB-468 = experiment: NCI60 one-dose screen; conditions: Homo sapiens, MDA-MB-468, read-out: Growth percent
MDA-MB-435 = experiment: NCI60 five-dose screen; conditions: Homo sapiens, MDA-MB-435
DU-145 = experiment: NCI60 one-dose screen; conditions: Homo sapiens, DU-145, read-out: Growth percent
SK-MEL-28 = experiment: NCI60 five-dose screen; conditions: Homo sapiens, SK-MEL-28
COLO 205 = experiment: NCI60 one-dose screen; conditions: Homo sapiens, COLO 205, read-out: Growth percent

CC[C@]12C=CCN3CC[C@@]4(c5ccc(OC)cc5N(C)[C@H]4[C@@](O)(C(=O)OC)[C@@H]1OC(=O)CCC[P+](C1CCCCC1)(C1CCCCC1)C1CCCCC1)[C@@H]32 [9d]
GI50 (OVCAR-4 [1]): 2390 nM | GI50 (ACHN): 15200 nM | GI50 (NCI-H522 [2]): 6880 nM | GI50 (HL-60(TB)): 322 nM | activity at 10 µM (HOP-92 [3]): -43.8% | activity at 10 µM (MDA-MB-231/ATCC): -90.8% | activity at 10 µM [4]: -32.7% | activity at 10 µM (SK-MEL-2): -84.9% | GI50 (MOLT-4): 2160 nM | activity at 10 µM (RPMI-8226): -43.5% | GI50 (UACC-257): 1260 nM | GI50 (HOP-92 [5]): 1010 nM | GI50 (A549/ATCC): 3460 nM | activity at 10 µM (SK-OV-3 [6]): -7.72% | GI50 (NCI-H460): 2770 nM | activity at 10 µM (OVCAR-5 [7]): 11% | GI50 (Melanoma panel): 1700 nM | GI50 (U251): 746 nM | activity at 10 µM (TK-10): -48.6% | activity at 10 µM (HCT-15): 76.6% | activity at 10 µM (NCI-H522 [8]): -82.2% | activity at 10 µM (MALME-3M): -96.1% | GI50 (RXF 393): 1470 nM | activity at 10 µM (LOX IMVI): -96% | activity at 10 µM (NCI-H226): -20% | GI50 (HCC-2998): 1700 nM | activity at 10 µM (T-47D): -1.81% | GI50 (M14): 1920 nM | GI50 (A498): 12400 nM | activity at 10 µM (786-0): -16.2% | activity at 10 µM (OVCAR-4 [9]): 17.7% | GI50 [10]: 3670 nM | GI50 (CAKI-1): 16400 nM | activity at 10 µM (SW-620): 3.91% | GI50 (SK-OV-3 [11]): 2590 nM | GI50 (Renal Cancer panel): 7930 nM | activity at 10 µM (NCI-H23): -4.73% | activity at 10 µM (HT29): -56.7% | GI50 (OVCAR-5 [12]): 3190 nM | GI50 (KM12): 1630 nM | activity at 10 µM (MDA-MB-468): -79.6% | GI50 (MDA-MB-435): 1830 nM | activity at 10 µM (DU-145): 15.7% | GI50 (SK-MEL-28): 1080 nM | activity at 10 µM (COLO 205): -63.6%

CC[C@]12C=CCN3CC[C@@]4(c5ccc(OC)cc5N(C)[C@H]4[C@@](O)(C(=O)OC)[C@@H]1OC(=O)CCC[P+](c1ccccc1)(c1ccccc1)c1ccccc1OC)[C@@H]32 [9f]
GI50 (OVCAR-4 [1]): 540 nM | GI50 (ACHN): 4580 nM | GI50 (NCI-H522 [2]): 339 nM | GI50 (HL-60(TB)): 170 nM | activity at 10 µM (HOP-92 [3]): -58.4% | activity at 10 µM (MDA-MB-231/ATCC): -94.5% | activity at 10 µM [4]: -45.4% | activity at 10 µM (SK-MEL-2): -98% | GI50 (MOLT-4): 419 nM | activity at 10 µM (RPMI-8226): -38% | GI50 (UACC-257): 406 nM | GI50 (HOP-92 [5]): 172 nM | GI50 (A549/ATCC): 945 nM | activity at 10 µM (SK-OV-3 [6]): -33.4% | GI50 (NCI-H460): 774 nM | activity at 10 µM (OVCAR-5 [7]): 10.6% | GI50 (Melanoma panel): 490 nM | GI50 (U251): 248 nM | activity at 10 µM (TK-10): -88.5% | activity at 10 µM (HCT-15): 30.7% | activity at 10 µM (NCI-H522 [8]): -70.4% | activity at 10 µM (MALME-3M): -96.7% | GI50 (RXF 393): 247 nM | activity at 10 µM (LOX IMVI): -95.7% | activity at 10 µM (NCI-H226): -38.6% | GI50 (HCC-2998): 325 nM | activity at 10 µM (T-47D): -25% | GI50 (M14): 1060 nM | GI50 (A498): 2650 nM | activity at 10 µM (786-0): -74.1% | activity at 10 µM (OVCAR-4 [9]): -11.1% | GI50 [10]: 1050 nM | GI50 (CAKI-1): 1900 nM | activity at 10 µM (SW-620): -48.7% | GI50 (SK-OV-3 [11]): 411 nM | GI50 (Renal Cancer panel): 3080 nM | activity at 10 µM (NCI-H23): -57.8% | activity at 10 µM (HT29): -57.8% | GI50 (OVCAR-5 [12]): 735 nM | GI50 (KM12): 331 nM | activity at 10 µM (MDA-MB-468): -84.6% | GI50 (MDA-MB-435): 299 nM | activity at 10 µM (DU-145): 1.94% | GI50 (SK-MEL-28): 506 nM | activity at 10 µM (COLO 205): -90.7%
